Reference: the NIST ThermoML archive (doi:10.1021/je900550v)

Details: 101.33 kPa, Liquid; for speed of sound: Pulse-echo method; for mass density: Vibrating tube method

CC(C)C(=O)[O-].C[NH2+]CCO [2-hydroxy-N-methylethanaminium isobutyrate]
Details	mass density [kg/m3]	speed of sound [m/s]	viscosity [mPa·s]
308.15 K	1036.92	1583.1	–
308.4 K	1036.77	1582.4	–
308.65 K	1036.6	1581.7	–
308.9 K	1036.44	1581	–
309.15 K	1036.28	1580.3	–
309.4 K	1036.11	1579.6	–
309.65 K	1035.95	1578.8	–
309.9 K	1035.79	1578.2	–
310.15 K	1035.62	1577.5	–
310.4 K	1035.46	1576.7	–
310.65 K	1035.29	1576	–
310.91 K	1035.13	1575.3	–
311.16 K	1034.97	1574.6	–
311.4 K	1034.81	1573.9	–
311.65 K	1034.64	1573.2	–
311.91 K	1034.48	1572.5	–
312.16 K	1034.32	1571.8	–
312.41 K	1034.15	1571.1	–
312.66 K	1033.99	1570.4	–
312.91 K	1033.82	1569.7	–
313.15 K	–	–	75.78
313.16 K	1033.66	1569	–
313.4 K	1033.49	1568.3	–
313.66 K	1033.33	1567.5	–
313.9 K	1033.16	1566.8	–
314.15 K	1033	1566.1	–
314.4 K	1032.84	1565.4	–
314.65 K	1032.67	1564.7	–
314.9 K	1032.51	1564	–
315.15 K	1032.35	1563.3	–
315.41 K	1032.18	1562.6	–
315.65 K	1032.01	1561.9	–
315.91 K	1031.85	1561.2	–
316.16 K	1031.68	1560.5	–
316.41 K	1031.52	1559.8	–
316.66 K	1031.35	1559.1	–
316.91 K	1031.18	1558.4	–
317.16 K	1031.02	1557.7	–
317.4 K	1030.86	1557	–
317.66 K	1030.69	1556.2	–
317.91 K	1030.53	1555.5	–
318.15 K	–	–	60.1
318.16 K	1030.36	1554.8	–
318.41 K	1030.19	1554.1	–
318.65 K	1030.03	1553.4	–
318.9 K	1029.87	1552.7	–
319.16 K	1029.7	1552	–
319.41 K	1029.53	1551.3	–
319.65 K	1029.37	1550.6	–
319.91 K	1029.2	1549.9	–
320.16 K	1029.03	1549.2	–
320.41 K	1028.87	1548.4	–
320.65 K	1028.7	1547.7	–
320.91 K	1028.54	1547	–
321.15 K	1028.37	1546.3	–
321.41 K	1028.2	1545.6	–
321.66 K	1028.03	1544.9	–
321.9 K	1027.87	1544.2	–
322.15 K	1027.7	1543.4	–
322.41 K	1027.54	1542.7	–
322.65 K	1027.37	1542	–
322.91 K	1027.2	1541.3	–
323.15 K	–	–	47.96
323.16 K	1027.03	1540.6	–
323.41 K	1026.86	1539.9	–
323.65 K	1026.69	1539.2	–
323.91 K	1026.53	1538.5	–
324.16 K	1026.36	1537.7	–
324.41 K	1026.19	1537	–
324.65 K	1026.03	1536.3	–
324.9 K	1025.86	1535.6	–
325.16 K	1025.69	1534.9	–
325.4 K	1025.52	1534.2	–
325.66 K	1025.36	1533.5	–
325.9 K	1025.19	1532.8	–
326.16 K	1025.02	1532.1	–
326.41 K	1024.85	1531.4	–
326.66 K	1024.68	1530.7	–
326.9 K	1024.52	1529.9	–
327.16 K	1024.34	1529.2	–
327.4 K	1024.18	1528.5	–
327.66 K	1024.01	1527.8	–
327.9 K	1023.84	1527.1	–
328.15 K	1023.67	1526.4	–
328.41 K	1023.5	1525.7	–
328.66 K	1023.33	1524.9	–
328.9 K	1023.16	1524.2	–
329.16 K	1022.99	1523.5	–
329.4 K	1022.82	1522.8	–
329.65 K	1022.65	1522	–
329.9 K	1022.48	1521.3	–
330.16 K	1022.32	1520.6	–
330.41 K	1022.14	1519.9	–
330.66 K	1021.98	1519.1	–
330.91 K	1021.81	1518.4	–
331.16 K	1021.63	1517.7	–
331.41 K	1021.47	1517	–
331.66 K	1021.29	1516.2	–
331.91 K	1021.13	1515.5	–
332.16 K	1020.95	1514.8	–
332.41 K	1020.78	1514.1	–
332.66 K	1020.61	1513.4	–
332.91 K	1020.44	1512.7	–
333.16 K	1020.27	1511.9	–
333.41 K	1020.1	1511.2	–
333.66 K	1019.93	1510.5	–
333.91 K	1019.76	1509.8	–
334.16 K	1019.59	1509.1	–
334.41 K	1019.42	1508.3	–
334.66 K	1019.24	1507.6	–
334.91 K	1019.07	1506.9	–
335.16 K	1018.9	1506.2	–
335.41 K	1018.73	1505.5	–
335.66 K	1018.56	1504.7	–
335.91 K	1018.38	1504	–
336.16 K	1018.22	1503.3	–
336.41 K	1018.04	1502.6	–
336.66 K	1017.87	1501.9	–
336.9 K	1017.7	1501.2	–
337.16 K	1017.53	1500.4	–
337.4 K	1017.35	1499.7	–
337.66 K	1017.18	1499	–
337.9 K	1017.01	1498.3	–
338.15 K	1016.84	1497.7	–
